Results on 6 molecules are retold here after patent US7501238B2, “Skin substitutes for irritancy testing” (priority 2001, dated 2009).

Like-named read-outs stand apart in the source and are kept apart here.

Data set [1] relates to NIKS organotypic cultures. The experiment in a line: IL-1α secretion by NIKS organotypic cultures after topical irritant (ELISA). In kind it is cell-based, human. The note with it: 24 hr at 37° C. On the procedure:
(§1) Solutions of SDS (0.1%, 0.2%, and 0.5%) were topically applied to air-exposed NIKS organotypic cultures and incubated for 24 hr at 37° C. After 24 hr, the media underneath the cultures was assayed for IL-1α protein using a Quantikine IL-1α ELISA kit (R&D Systems, Minneapolis, Minn.) and cultures were incubated with MTS reagent (Promega Corp., Madison, Wis.) to determine cell viability. Media from untreated cultures contained 25 pg/ml IL-1α, whereas the concentration of IL-1α in cultures treated with 0.1%, 0.2% or 0.5% SDS was 290, 375 and 275 pg/ml respectively.

Data set [2] deals with NIKS organotypic cultures. The experiment in a line: MTS cell viability of irritant-treated NIKS organotypic cultures. The note with it: 0.5% SDS, 24 hr. The class given is cell-based, human. The method, then:
as §1
These values correspond well with published IL-1α responses in SDS-exposed skin equivalents (Perkins et al, Toxicological Sciences, 48:218 [1999]).

A further data set deals with skin equivalents. The conditions noted are these: irritant-treated skin equivalents; 0.2% SDS, 0.005% calcipotriol, 0.025% trans-retinoic acid; cited from earlier work.
The test system of data set [3] is in vitro skin equivalent cultures. The conditions noted are these: substance added to in vitro cultures, cited from earlier work.
The test system of data set [4] is IL-8 promoter sequences between −1472 and +19 in tracheobronchial epithelial cells. The note with it: cited from earlier work.

Turning to `CCCCCCCCCCCCOS(=O)(=O)[O-].[Na+]` [SDS], the entries for the “concentration of IL-1α in media” value in data set [1] (0.1% SDS applied topically), in data set [1] (0.2% SDS applied topically) and in data set [1] (0.5% SDS applied topically) were 290 pg/mL, 375 pg/mL and 275 pg/mL, respectively. For the same molecule, the “cell viability (MTS assay)” value in data set [2] is “decreased cell viability”. Besides, the “expression and secretion of the pro-inflammatory cytokines IL-1α and IL-8” value (from here on “expression and secretion”) in the data set on skin equivalents is “induce expression and secretion”.

Regarding `O=C1O[C@H]([C@@H](O)CO)C(O)=C1O` [Vitamin C], the “Lipid Composition” value was “Major” in data set [3] and “improved the lipid profile” in data set [3] (listed as vitamin C).

Take `C=C1/C(=C\C=C2/CCC[C@]3(C)[C@@H]([C@H](C)/C=C/[C@@H](O)C4CC4)CC[C@@H]23)C[C@@H](O)C[C@@H]1O` [calcipotriol]: the “expression and secretion” value in the data set on skin equivalents is “induce expression and secretion”.

Regarding `CC1=C(/C=C/C(C)=C/C=C/C(C)=C/C(=O)O)C(C)(C)CCC1` [trans-retinoic acid], the “expression and secretion” value with skin equivalents is “induce expression and secretion”. Further, the “induction of reporter gene containing IL-8 promoter sequences” value in data set [4] is recorded as “induced”.

For “EGF: epidermal growth factor (NSDSECPLSHDGYCLHDGVCMYIEALDKYACNCVVGYIGERCQYRDLKWWELR; Epidermal growth factor; UniProt P01133 971-1023, looked up)”, the “Lipid Composition” value in data set [3] is “High triglycerides”.

On to Vitamin E, for which the “Lipid Composition” value in data set [3] is given as “No effect”.
